Laboratory results from ChEMBL document CHEMBL5137064, “Therapeutic Potential and Activity Modulation of the Protein Lysine Deacylase Sirtuin 5” (J Med Chem, 2022).
pIC50, pKd, pKi: −log10 of the molar value. Values belong to the molecule of their own block, whether it stands above or below them. *1 amine or outer side, *2 acyl side, *3 side chain or, on linkers, in order; H or OH if unused. Where a SMILES comes first, the peptide text is derived from it. Side-chain parts run from the residue outwards. The star is where a group is joined. ξ: configuration not given here. Succinyl(3ξ-Ph) = O=C(O)C(CC(=O)*)c1ccccc1; βAsp = O=C(O)[C@H](CC(=O)[*:2])N[*:1]; X2 = CC(CC(=O)*)(C(=O)O)c1ccccc1; X3 = CCCCC(CC(=O)*)C(=O)O; Cbz = O=C(OCc1ccccc1)*; Bz = O=C(c1ccccc1)*

Assays:
[1] = biological target: T1, NAD-dependent protein deacylase sirtuin-5, mitochondrial (Homo sapiens, UniProt Q9NXA8); assay: Binding affinity to SIRT5 (unknown origin) assessed as deglutarylase activity by measuring inhibition constant
Target sequence in this assay (Q9NXA8 whole entry): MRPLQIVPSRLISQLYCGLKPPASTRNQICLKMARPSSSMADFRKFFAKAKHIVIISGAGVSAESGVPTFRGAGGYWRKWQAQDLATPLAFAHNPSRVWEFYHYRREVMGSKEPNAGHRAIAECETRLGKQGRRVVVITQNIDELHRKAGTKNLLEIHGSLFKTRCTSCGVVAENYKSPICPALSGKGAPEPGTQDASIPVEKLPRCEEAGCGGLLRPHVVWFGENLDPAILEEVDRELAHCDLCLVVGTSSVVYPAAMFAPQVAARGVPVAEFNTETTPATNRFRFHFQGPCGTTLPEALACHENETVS

[2] = biological target: T1, NAD-dependent protein deacylase sirtuin-5, mitochondrial; assay: Inhibition of SIRT5 deglutarylase activity (unknown origin)
Target sequence in this assay (Q9NXA8 whole entry): as above

[3] = biological target: T1, NAD-dependent protein deacylase sirtuin-5, mitochondrial; assay: Inhibition of human recombinant SIRT5 using fluorogenic Benzyl-Lys(Succinyl)-AMC as substrate incubated for 2 hrs measured by fluoroscence based microplate reader method
Target sequence in this assay (Q9NXA8 whole entry): as above

[4] = biological target: T1, NAD-dependent protein deacylase sirtuin-5, mitochondrial; assay: Binding affinity to SIRT5 (unknown origin) assessed as desuccinylation activity by measuring inhibition constant
Target sequence in this assay (Q9NXA8 whole entry): as above

[5] = biological target: T1, NAD-dependent protein deacylase sirtuin-5, mitochondrial; assay: Inhibition of SIRT5 desuccinylase activity (unknown origin) using succinyl-lysine as substrate
Target sequence in this assay (Q9NXA8 whole entry): as above

[6] = biological target: T1, NAD-dependent protein deacylase sirtuin-5, mitochondrial; assay: Binding affinity to SIRT5 (unknown origin) assessed as desuccinylation activity by measuring dissociation constant
Target sequence in this assay (Q9NXA8 whole entry): as above

[7] = biological target: T2, NAD-dependent protein deacetylase sirtuin-1 (Homo sapiens) (UniProt Q96EB6); assay: Inhibition of SIRT1 (unknown origin) at 50 uM relative to control
T2 sequence (whole entry): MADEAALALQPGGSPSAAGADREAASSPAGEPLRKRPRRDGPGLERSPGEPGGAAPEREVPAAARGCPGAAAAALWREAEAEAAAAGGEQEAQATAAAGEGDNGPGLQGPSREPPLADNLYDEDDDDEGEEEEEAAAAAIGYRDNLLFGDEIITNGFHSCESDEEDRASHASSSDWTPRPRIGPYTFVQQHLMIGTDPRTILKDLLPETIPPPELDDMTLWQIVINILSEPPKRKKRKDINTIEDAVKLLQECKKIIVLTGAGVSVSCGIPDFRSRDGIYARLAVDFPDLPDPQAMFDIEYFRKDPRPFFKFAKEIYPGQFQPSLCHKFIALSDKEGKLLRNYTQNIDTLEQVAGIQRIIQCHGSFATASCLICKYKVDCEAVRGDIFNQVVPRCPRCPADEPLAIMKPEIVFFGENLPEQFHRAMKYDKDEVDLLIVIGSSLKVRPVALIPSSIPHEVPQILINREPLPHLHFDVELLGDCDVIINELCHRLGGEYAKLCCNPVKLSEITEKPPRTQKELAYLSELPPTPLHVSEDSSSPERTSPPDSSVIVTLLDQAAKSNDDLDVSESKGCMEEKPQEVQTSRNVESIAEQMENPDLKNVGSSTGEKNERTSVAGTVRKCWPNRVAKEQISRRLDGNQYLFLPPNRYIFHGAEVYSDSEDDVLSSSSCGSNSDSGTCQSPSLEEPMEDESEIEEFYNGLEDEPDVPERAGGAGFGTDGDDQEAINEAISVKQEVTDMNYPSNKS

[8] = biological target: T3, NAD-dependent protein deacetylase sirtuin-2 (Homo sapiens) (UniProt Q8IXJ6); assay: Inhibition of SIRT2 (unknown origin) at 50 uM relative to control
T3 sequence (whole entry): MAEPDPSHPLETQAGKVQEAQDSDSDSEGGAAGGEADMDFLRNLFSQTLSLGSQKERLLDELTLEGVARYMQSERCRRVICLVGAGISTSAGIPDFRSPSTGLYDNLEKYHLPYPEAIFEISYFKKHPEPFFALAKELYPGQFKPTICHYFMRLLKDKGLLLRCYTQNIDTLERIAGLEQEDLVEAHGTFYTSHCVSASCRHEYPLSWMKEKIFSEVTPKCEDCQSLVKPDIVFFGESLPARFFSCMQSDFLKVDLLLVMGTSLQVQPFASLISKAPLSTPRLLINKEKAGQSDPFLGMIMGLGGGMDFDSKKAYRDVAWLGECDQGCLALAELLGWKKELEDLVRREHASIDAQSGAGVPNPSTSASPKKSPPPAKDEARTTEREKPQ

[9] = biological target: T4, NAD-dependent protein deacetylase sirtuin-3, mitochondrial (Homo sapiens) (UniProt Q9NTG7); assay: Inhibition of SIRT3 (unknown origin) at 50 uM relative to control
T4 sequence (whole entry): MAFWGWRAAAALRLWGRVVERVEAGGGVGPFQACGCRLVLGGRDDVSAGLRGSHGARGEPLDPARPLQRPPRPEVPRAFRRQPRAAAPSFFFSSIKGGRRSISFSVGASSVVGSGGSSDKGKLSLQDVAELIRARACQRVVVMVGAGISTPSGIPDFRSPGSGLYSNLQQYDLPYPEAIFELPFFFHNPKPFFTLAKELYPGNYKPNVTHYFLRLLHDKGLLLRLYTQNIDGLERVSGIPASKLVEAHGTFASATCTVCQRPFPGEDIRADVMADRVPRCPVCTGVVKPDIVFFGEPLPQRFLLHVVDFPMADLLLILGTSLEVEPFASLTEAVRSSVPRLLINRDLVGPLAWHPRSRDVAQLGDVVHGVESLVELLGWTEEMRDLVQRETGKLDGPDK

[10] = biological target: T4, NAD-dependent protein deacetylase sirtuin-3, mitochondrial (Homo sapiens); assay: Inhibition of SIRT3 (unknown origin) at 50 uM incubated for 15 mins by fluorometric assay relative to control
[11] = biological target: T1, NAD-dependent protein deacylase sirtuin-5, mitochondrial; assay: Inhibition of SIRT5 (unknown origin) at 50 uM incubated for 15 mins by fluorometric assay relative to control
Target sequence in this assay (Q9NXA8 37-310 limits assumed): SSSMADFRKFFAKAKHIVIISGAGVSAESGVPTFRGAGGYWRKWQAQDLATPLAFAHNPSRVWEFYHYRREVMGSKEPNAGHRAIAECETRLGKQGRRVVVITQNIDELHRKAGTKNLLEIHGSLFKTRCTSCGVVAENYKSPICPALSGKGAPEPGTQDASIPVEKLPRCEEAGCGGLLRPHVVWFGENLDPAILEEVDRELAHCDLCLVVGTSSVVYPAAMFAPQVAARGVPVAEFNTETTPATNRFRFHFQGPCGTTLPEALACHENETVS

[12] = biological target: T4, NAD-dependent protein deacetylase sirtuin-3, mitochondrial (Homo sapiens); assay: Inhibition of SIRT3 (unknown origin) at 10 uM relative to control
[13] = test system: HEK-293T; assay: Cytotoxicity against human HEK293T cells at 100 uM relative to control; assay type: toxicity, cell-based
[14] = biological target: T2, NAD-dependent protein deacetylase sirtuin-1 (Homo sapiens); assay: Inhibition of SIRT1 (unknown origin) at 1 uM relative to control
[15] = test system: SKM-1; assay: cells; details: Homo sapiens
Description: Cytotoxicity against human SKM-1 cells

[16] = test system: MOLM-13; assay: Cytotoxicity against human MOLM-13 cells; assay type: functional, cell-based
[17] = test system: OCI-AML2; assay: cells; details: Homo sapiens
Description: Cytotoxicity against human OCI-AML2 cells

[18] = test system: OCI-AML2; assay: Induction of apoptosis in human OCI-AML2 cells at 20 uM relative to control; assay type: functional
[19] = test system: SKM-1; assay: Induction of apoptosis in human SKM-1 cells at 20 uM relative to control; assay type: functional

pKi [1]: 9.30
pIC50 [2]: ≥ 7.30
Structure (SMILES): O=C(NC1CCC1)[C@H](Cc1c[nH]c2ccccc12)NC(=O)[C@H](CCCCNC(=S)NCCc1nnn[nH]1)NS(=O)(=O)c1cccc(F)c1

pIC50 [3]: 4.00
Structure (SMILES): Cc1ccc(NC(=O)/C(C#N)=C/c2ccc(-c3cccc(C(=O)O)c3)o2)cc1C

pKi [4]: 4.76
Structure (SMILES): CCCCC(CC(=O)NCCCC[C@H](NC(=O)[C@H](CC(C)C)NC(=O)[C@@H](NC(=O)CNC(=O)c1ccccc1)C(C)C)C(=O)N[C@@H](CCC(=O)O)C(=O)N[C@@H](Cc1ccc(O)cc1)C(=O)NCC(=O)N[C@H](C(N)=O)C(C)C)C(=O)O (stereo partly specified) (Bz-GVLK(X3)EYGV-NH2)

pIC50 [5]: 4.03
Structure (SMILES): CC(=O)NCCCC[C@H](NC(=O)[C@H](CCCCNC(=S)NCCC(=O)O)NC(=O)C(CCCNC(=N)N)NC(C)=O)C(N)=O (stereo partly specified)

pKd [6]: 5.24
pKi [4]: 4.42
Structure (SMILES): CC(C)C[C@H](NC(=O)[C@@H](NC(=O)CNC(=O)c1ccccc1)C(C)C)C(=O)N[C@@H](CCCCNC(=O)C[C@H](NC(=O)OCc1ccccc1)C(=O)O)C(=O)N[C@@H](CCC(=O)O)C(=O)N[C@@H](Cc1ccc(O)cc1)C(=O)NCC(=O)N[C@H](C(N)=O)C(C)C (Bz-GVLK([βAsp-Cbz])EYGV-NH2)

inhibition [7]: < 1%
inhibition [8]: 4%
inhibition [9]: < 1%
pKi [4]: 5.37
Structure (SMILES): CC(C)C[C@H](NC(=O)[C@@H](NC(=O)CNC(=O)c1ccccc1)C(C)C)C(=O)N[C@@H](CCCCNC(=O)CC(C)(C(=O)O)c1ccccc1)C(=O)N[C@@H](CCC(=O)O)C(=O)N[C@@H](Cc1ccc(O)cc1)C(=O)NCC(=O)N[C@H](C(N)=O)C(C)C (stereo partly specified) (Bz-GVLK(X2)EYGV-NH2)

inhibition [10]: 8%
inhibition [11]: 42%
Structure (SMILES): O=C(CC[C@H](NC(=O)OCc1ccccc1)C(=O)O)NCCCC[C@H](NC(=O)OCc1ccccc1)C(=O)Nc1ccccc1

pIC50 [2]: 6.59
Structure (SMILES): O=C(O)CCNC(=S)NCCCC[C@H](NS(=O)(=O)c1cccc(F)c1)C(=O)N[C@@H](Cc1c[nH]c2ccccc12)C(=O)NC1CC1

pIC50 [2]: 6.54
inhibition [12]: 40%
Structure (SMILES): O=C(NC1CCC1)[C@H](Cc1c[nH]c2ccccc12)NC(=O)[C@H](CCCCNC(=S)NCCc1cc(O)on1)NS(=O)(=O)c1cccc(F)c1

pIC50 [3]: 4.24
Structure (SMILES): Cc1ccc(NC(=O)/C(C#N)=C/c2ccc(-c3ccc(C(=O)O)cc3C)o2)cc1C

pKd [6]: 5.09
pKi [4]: 4.00
Structure (SMILES): CC(C)C[C@H](NC(=O)[C@@H](NC(=O)CNC(=O)c1ccccc1)C(C)C)C(=O)N[C@@H](CCCCNC(=O)CC(C(=O)O)c1ccccc1)C(=O)N[C@@H](CCC(=O)O)C(=O)N[C@@H](Cc1ccc(O)cc1)C(=O)NCC(=O)N[C@H](C(N)=O)C(C)C (stereo partly specified) (Bz-GVLK(Succinyl(3ξ-Ph))EYGV-NH2)

Structure (SMILES): N#C/C(=C\c1ccc(-c2ccc(C(=O)O)cc2)o1)C(=O)Nc1ccc(C#N)c(C(F)(F)F)c1
pIC50 [3]: 4.86

inhibition [14]: 76%
pIC50 [15]: 5.05
pIC50 [17]: 4.70
Structure (SMILES): CC(C)C(OC(=O)C(C)(C)C)n1nnnc1CCCNC(=S)NCCCC[C@H](NS(=O)(=O)c1cccc(F)c1)C(=O)N[C@@H](Cc1c[nH]c2ccccc12)C(=O)NC1CCC1 (stereo partly specified)
Activity [13]: 35%
pIC50 [16]: 4.62

pKi [1]: 8.22
pIC50 [15]: 5.00
pIC50 [17]: < 4.70
Structure (SMILES): O=C(O)CCNC(=S)NCCCC[C@H](NS(=O)(=O)c1cccc(F)c1)C(=O)N[C@@H](Cc1c[nH]c2ccccc12)C(=O)NC1CCC1
Activity [18]: 25%
pIC50 [16]: 4.54
Activity [19]: >80%
